The term IC50 denotes the concentration needed to halve the response being measured.

We go through two molecules from ChEMBL document CHEMBL4622974, “Leveraging an Open Science Drug Discovery Model to Develop CNS-Penetrant ALK2 Inhibitors for the Treatment of Diffuse Intrinsic Pontine Glioma” (J Med Chem, 2020).

The source made the active and inactive calls. The rule behind the calls is not given here. Some results are limits rather than exact numbers.

The target of data set [1] is Tyrosine-protein kinase Lyn (Homo sapiens) (UniProt P07948). Kind of data set: Inhibition of LYN (unknown origin).
Tyrosine-protein kinase Lyn (Homo sapiens), sequence (P07948 2-512 limits assumed): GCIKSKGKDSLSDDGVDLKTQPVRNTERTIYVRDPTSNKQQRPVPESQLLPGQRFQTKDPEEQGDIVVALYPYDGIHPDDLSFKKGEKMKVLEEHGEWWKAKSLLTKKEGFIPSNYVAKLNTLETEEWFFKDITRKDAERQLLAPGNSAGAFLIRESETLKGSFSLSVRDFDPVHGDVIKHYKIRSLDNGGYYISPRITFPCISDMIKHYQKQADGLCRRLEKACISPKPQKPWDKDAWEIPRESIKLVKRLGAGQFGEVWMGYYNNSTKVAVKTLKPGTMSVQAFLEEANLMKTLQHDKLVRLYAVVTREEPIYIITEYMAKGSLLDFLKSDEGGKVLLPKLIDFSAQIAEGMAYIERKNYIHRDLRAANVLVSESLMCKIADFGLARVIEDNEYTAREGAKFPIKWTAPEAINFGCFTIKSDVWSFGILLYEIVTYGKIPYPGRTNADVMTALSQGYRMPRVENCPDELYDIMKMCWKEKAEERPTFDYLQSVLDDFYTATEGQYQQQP
The target of data set [2] is T1, Activin receptor type-1 (Homo sapiens, UniProt Q04771).
T1 sequence (Q04771 whole entry): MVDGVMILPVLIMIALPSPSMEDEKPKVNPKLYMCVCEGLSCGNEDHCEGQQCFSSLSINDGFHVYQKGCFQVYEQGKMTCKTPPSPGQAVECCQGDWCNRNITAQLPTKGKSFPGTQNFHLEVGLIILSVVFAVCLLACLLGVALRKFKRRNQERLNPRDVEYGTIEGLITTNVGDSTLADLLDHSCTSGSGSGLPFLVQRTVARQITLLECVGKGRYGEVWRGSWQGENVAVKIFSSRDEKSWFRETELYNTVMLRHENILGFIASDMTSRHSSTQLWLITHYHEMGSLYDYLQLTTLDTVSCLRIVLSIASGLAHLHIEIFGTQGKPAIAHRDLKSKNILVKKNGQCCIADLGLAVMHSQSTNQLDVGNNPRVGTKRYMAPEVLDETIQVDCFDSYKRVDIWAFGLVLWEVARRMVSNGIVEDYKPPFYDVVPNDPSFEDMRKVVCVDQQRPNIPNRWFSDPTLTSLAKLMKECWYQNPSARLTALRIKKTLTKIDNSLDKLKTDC
The experiment in a line: Inhibition of human ALK2 using casein as substrate in presence of [gamma-33P]-ATP by radiometric hotspot assay.

The target in data set [3] is T2, TGF-beta receptor type-1 (Homo sapiens, UniProt P36897).
T2 sequence (P36897 whole entry): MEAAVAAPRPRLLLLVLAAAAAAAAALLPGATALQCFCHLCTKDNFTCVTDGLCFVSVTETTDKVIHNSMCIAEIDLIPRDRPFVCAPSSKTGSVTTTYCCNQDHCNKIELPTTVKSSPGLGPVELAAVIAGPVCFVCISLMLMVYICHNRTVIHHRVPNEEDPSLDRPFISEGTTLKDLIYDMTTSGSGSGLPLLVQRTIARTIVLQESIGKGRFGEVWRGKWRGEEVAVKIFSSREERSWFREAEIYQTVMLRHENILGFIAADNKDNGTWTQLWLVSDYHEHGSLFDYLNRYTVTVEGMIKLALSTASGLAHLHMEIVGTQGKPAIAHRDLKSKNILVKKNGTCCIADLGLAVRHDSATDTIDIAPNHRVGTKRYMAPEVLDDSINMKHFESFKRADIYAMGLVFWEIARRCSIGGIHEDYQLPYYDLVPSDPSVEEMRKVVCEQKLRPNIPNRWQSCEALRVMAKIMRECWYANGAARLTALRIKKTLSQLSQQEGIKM
The experiment in a line: Inhibition of human ALK5 using casein as substrate in presence of [gamma-33P]-ATP by radiometric hotspot assay. The class given is ADME.

Data set [4] is described as follows: Unbound brain-to-plasma concentration ratio in CD-1 mouse plasma at 1 mg/kg, iv measured at 2 hrs. The class given is ADME, organism-based. As to conditions: read-out: K(p,uu,brain).
For data set [5], the target named is Bone morphogenetic protein receptor type-1B (Homo sapiens, UniProt O00238). The experiment in a line: Inhibition of human ALK6 using casein as substrate in presence of [gamma-33P]-ATP by radiometric hotspot assay.
Bone morphogenetic protein receptor type-1B, sequence (O00238 whole entry): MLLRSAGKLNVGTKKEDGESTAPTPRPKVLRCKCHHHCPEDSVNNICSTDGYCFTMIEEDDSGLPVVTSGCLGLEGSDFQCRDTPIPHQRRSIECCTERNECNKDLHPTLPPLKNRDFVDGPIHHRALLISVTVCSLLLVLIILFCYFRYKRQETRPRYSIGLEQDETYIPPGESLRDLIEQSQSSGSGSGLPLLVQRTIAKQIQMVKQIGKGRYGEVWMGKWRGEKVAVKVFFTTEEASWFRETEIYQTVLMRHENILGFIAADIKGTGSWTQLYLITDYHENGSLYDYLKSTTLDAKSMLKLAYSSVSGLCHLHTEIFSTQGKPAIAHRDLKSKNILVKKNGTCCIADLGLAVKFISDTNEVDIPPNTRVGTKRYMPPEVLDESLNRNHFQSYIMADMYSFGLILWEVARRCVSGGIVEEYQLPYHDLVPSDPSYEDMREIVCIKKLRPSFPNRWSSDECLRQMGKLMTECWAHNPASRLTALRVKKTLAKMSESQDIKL
Data set [6] is described as follows: Toxicity in C57BL/6 mouse assessed as body weight loss at 25 mg/kg, po QD administered for 5 days measured after 24 hrs relative to control. The class given is organism-based. As to conditions: in vivo.
In data set [7] the target is Cytochrome P450 2C9 (Homo sapiens, UniProt P11712). The experiment in a line: Inhibition of CYP2C9 in human liver microsomes using tolbutamide as substrate incubated for 20 mins in presence of NADPH by LC/MS/MS analysis. The class given is ADME.
Cytochrome P450 2C9, sequence (P11712 whole entry): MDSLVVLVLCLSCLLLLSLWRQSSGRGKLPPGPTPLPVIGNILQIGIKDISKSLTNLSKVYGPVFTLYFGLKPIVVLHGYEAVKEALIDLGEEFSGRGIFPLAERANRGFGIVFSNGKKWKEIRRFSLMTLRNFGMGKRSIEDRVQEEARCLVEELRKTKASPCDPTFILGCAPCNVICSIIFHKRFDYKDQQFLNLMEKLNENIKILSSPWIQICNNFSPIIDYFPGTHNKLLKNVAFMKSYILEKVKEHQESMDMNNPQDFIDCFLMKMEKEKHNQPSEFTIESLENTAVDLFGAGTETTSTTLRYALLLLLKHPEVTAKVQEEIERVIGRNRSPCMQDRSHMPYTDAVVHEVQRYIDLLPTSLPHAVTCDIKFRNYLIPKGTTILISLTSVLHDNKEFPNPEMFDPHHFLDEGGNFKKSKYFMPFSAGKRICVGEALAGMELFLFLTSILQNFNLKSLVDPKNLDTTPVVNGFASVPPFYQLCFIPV
The target of data set [8] is Cannabinoid receptor 1 (Homo sapiens, UniProt P21554). The experiment in a line: Inhibition of recombinant human CB1 incubated for 60 mins by scintillation counting method.
Cannabinoid receptor 1, sequence (P21554 whole entry): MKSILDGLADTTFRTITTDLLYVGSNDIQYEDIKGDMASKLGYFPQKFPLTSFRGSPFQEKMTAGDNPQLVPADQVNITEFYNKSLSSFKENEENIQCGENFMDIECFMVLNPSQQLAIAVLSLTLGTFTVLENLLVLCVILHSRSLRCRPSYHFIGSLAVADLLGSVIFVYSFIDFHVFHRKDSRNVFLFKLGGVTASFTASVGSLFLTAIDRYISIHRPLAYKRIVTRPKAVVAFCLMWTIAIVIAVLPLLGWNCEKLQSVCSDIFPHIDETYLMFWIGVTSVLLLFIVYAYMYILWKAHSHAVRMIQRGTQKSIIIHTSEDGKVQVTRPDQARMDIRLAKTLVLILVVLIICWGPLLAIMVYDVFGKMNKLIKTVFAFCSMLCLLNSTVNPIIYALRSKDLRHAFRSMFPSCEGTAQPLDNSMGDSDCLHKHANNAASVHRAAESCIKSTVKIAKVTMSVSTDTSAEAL
The nature of data set [9]: Toxicity in C57BL/6 mouse assessed as gross pathology at 25 mg/kg, po QD administered for 5 days measured after 24 hrs relative to control. The class given is organism-based. The conditions noted are these: in vivo.
A short description of data set [10]: Plasma concentration in NOD/SCID mouse at 25 mg/kg, po measured after 0.5 to 6 hrs. The class given is ADME, organism-based. The conditions noted are these: in vivo.
Data set [11] has as its target Cytochrome P450 1A2 (Homo sapiens, UniProt P05177). The experiment in a line: Inhibition of CYP1A2 in human liver microsomes using phenacetin as substrate incubated for 20 mins in presence of NADPH by LC/MS/MS analysis. The class given is ADME. Background: Liver microsomes are vesicles of endoplasmic reticulum, rich in cytochrome P450 enzymes.
The target in data set [12] is Cytochrome P450 2D6 (Homo sapiens, UniProt P10635). The experiment in a line: Inhibition of CYP2D6 in human liver microsomes using dextromethorphan as substrate incubated for 20 mins in presence of NADPH by LC/MS/MS analysis. The class given is ADME.
Cytochrome P450 2D6, sequence (P10635 whole entry): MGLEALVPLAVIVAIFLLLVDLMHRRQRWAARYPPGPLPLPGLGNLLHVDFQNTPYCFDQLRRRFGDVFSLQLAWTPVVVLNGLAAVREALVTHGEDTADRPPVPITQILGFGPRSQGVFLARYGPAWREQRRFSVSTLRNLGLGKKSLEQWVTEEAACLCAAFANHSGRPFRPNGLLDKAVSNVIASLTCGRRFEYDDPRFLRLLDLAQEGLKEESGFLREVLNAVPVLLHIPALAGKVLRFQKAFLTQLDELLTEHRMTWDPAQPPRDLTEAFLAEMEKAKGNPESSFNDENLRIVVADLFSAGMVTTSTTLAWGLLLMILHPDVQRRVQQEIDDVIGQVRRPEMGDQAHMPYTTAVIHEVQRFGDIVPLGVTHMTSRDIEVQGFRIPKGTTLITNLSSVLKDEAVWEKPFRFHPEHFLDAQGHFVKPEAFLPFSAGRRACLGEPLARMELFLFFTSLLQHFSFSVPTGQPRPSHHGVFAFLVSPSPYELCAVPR
A short description of data set [13]: Toxicity in C57BL/6 mouse assessed as mouse death at 50 mg/kg, po QD administered for 5 days measured after 24 hrs. The conditions noted are these: in vivo. The class given is organism-based.
Data set [14] deals with Activin receptor type-1-like (Homo sapiens, UniProt P37023). Kind of data set: Inhibition of human ALK1 using casein as substrate in presence of [gamma-33P]-ATP by radiometric hotspot assay.
Activin receptor type-1-like, sequence (P37023 whole entry): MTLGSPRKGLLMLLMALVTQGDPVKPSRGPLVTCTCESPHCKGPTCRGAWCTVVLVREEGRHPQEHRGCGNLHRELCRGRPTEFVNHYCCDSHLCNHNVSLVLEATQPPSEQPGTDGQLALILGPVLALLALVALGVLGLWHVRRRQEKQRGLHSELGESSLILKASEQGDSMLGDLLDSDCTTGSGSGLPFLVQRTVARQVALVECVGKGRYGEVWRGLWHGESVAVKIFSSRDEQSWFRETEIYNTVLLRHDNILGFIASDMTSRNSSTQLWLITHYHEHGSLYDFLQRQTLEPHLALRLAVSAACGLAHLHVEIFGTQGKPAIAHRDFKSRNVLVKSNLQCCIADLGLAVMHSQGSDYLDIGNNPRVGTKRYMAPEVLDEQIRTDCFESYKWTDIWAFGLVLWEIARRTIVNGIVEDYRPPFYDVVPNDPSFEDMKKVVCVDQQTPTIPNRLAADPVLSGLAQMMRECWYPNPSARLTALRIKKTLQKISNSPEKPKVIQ
In data set [15] the target is Cytochrome P450 3A4 (Homo sapiens, UniProt P08684). Kind of data set: Inhibition of CYP3A4 in human liver microsomes using testosterone as substrate incubated for 10 mins in presence of NADPH by LC/MS/MS analysis. The class given is ADME.
Cytochrome P450 3A4, sequence (P08684 whole entry): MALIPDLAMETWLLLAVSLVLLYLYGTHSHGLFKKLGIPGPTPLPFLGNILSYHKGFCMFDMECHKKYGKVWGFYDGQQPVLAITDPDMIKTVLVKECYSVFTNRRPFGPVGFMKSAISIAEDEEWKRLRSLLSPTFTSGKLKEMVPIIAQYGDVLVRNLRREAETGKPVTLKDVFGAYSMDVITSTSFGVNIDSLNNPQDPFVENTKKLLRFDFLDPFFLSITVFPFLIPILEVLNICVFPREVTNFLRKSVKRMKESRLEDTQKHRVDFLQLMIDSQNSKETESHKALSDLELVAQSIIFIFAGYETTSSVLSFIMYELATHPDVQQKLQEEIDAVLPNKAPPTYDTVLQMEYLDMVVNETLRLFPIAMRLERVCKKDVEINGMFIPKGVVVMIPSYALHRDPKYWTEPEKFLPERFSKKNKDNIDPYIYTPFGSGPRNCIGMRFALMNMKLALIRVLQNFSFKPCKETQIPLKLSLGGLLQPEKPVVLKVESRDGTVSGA
Data set [16] can be described thus: Ratio of drug level in brain to plasma in CD-1 mouse at 10 mg/kg, po measured at 2 hrs. The conditions noted are these: brain and plasma, read-out: BPR. The class given is ADME, organism-based.
Data set [17] can be described thus: Protein binding in CD-1 mouse brain at 1 mg/kg, iv measured at 2 hrs. The class given is ADME, organism-based. The conditions noted are these: read-out: PB (converted).
Data set [18] concerns the target Bone morphogenetic protein receptor type-1A (Homo sapiens, UniProt P36894). The experiment in a line: Inhibition of human ALK3 using casein as substrate in presence of [gamma-33P]-ATP by radiometric hotspot assay.

Bone morphogenetic protein receptor type-1A, sequence (P36894 whole entry): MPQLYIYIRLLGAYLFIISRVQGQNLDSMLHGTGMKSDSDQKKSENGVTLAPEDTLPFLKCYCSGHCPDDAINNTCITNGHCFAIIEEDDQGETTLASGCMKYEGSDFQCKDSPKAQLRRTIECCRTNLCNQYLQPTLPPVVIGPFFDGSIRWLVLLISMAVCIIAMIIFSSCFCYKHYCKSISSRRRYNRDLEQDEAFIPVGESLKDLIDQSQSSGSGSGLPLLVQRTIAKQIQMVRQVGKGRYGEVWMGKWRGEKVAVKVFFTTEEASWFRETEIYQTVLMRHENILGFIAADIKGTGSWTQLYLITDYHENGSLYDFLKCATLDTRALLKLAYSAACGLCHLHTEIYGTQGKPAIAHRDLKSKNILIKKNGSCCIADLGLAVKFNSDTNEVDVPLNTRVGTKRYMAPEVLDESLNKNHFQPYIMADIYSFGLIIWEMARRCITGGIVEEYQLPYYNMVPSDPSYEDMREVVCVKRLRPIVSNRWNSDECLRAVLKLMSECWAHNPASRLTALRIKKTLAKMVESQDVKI
Cytochrome P450 1A2, sequence (P05177 whole entry): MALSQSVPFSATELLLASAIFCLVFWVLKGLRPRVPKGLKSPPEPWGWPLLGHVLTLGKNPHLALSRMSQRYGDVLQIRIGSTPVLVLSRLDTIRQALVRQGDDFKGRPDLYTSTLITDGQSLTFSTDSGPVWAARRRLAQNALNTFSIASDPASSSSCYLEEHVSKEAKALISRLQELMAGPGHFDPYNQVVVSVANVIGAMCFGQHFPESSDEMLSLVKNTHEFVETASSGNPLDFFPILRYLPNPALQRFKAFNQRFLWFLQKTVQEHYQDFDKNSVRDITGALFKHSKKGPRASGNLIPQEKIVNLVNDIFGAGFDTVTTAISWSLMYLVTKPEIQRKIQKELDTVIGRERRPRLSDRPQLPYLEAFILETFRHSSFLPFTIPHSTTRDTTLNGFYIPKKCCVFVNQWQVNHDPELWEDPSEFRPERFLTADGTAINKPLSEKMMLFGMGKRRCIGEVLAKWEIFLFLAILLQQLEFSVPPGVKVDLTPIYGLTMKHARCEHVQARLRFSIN

For `COc1cc(-c2cncc(-c3ccc(C4CCN(C)CC4)cc3)c2C)cc(OC)c1OC`, the inhibition entry in data set [1] is “Active”. For the same molecule, the IC50 is 0.007 µM in data set [2] and over 5 µM in data set [3].

Regarding `COc1cc(-c2cncc(-c3ccc(N4CCNCC4)cc3)c2C)cc(OC)c1OC`, the Kp uu at 2 h in data set [4] stood at 0.3. Moreover, the 50% inhibitory concentration (IC50) in [5] is 0.068 µM; in data set [7], over 30 µM; in [8], 1.72 µM; in [11] it was over 30 µM; in [12], over 30 µM; in data set [14], 0.015 µM. In addition, the IC50 in data set [15] was over 9 µM; in [18] it was 0.428 µM. Besides, the Activity entry in [6], in [9] and in [13] was “Non-Toxic” throughout. For the same molecule, the concentration in data set [10] came out at 7.46 µM. Further, the Kp at 2 h in data set [16] was found to be 0.9. Further, the fraction unbound at 2 h in [17] is 0.03.
